{
  "source": "patent US20090155179A1",
  "about": "“KINETIC BIOMARKER FOR QUANTIFICATION OF LYMPHOPROLIFERATION, CLONAL EXPANSION, RECRUITMENT AND TRAFFICKING IN LYMPHOID TISSUES AND OF THE IN VIVO ACTIONS OF ANTIGENS AND MODULATING THEREON” (KINEMED, INC., priority 2005, published 2009)",
  "key": {"[1]": {"system": "PLN cells (draining popliteal lymph node lymphocytes)", "assay": "kinetic PLNA (popliteal lymph node assay) with continuous 2H2O labeling after footpad immunization", "assay_type": "in vivo, Balb/c mice", "conditions": "for PLN cellularity under drug treatment: 5 μg KLH or PBS, Rap 2 mg/kg/d p.o.", "description": "PLNA and heavy water labeling. The kinetic PLNA was performed as follows, except as noted in the Figure legends. In all experiments, groups of n=4 or 5 Balb/c mice were immunized subcutaneously on day 0 in the left hind footpad (toe to heel direction) with 20 μl PBS or drug vehicle (negative control group), or with 20 μl PBS containing 5-25 μg KLH (positive control group). Heavy water labeling was initiated on day 0 by intraperitoneal administration of 99.9% ^2H2O containing 0.9% w/v NaCl at 35 ml/kg body weight, and animals were maintained on 8% ^2H2O in drinking water for the remainder of the study. At day 7 post immunization, animals were bled into heparinized tubes by cardiac puncture under isoflurane anesthesia and sacrificed by cervical dislocation. The blood was centrifuged at 1500×g for 10 minutes, and heparinized plasma was stored at −20° C. for determination of body water ^2H enrichment; a second aliquot was frozen for serologic studies. Bone marrow was harvested from the right hindlimb femur by flushing the bone with 1 ml PBS using a 25 ga cannula and centrifuging the tissue and cell suspension at 450×g for 5 min.\nAnalysis of PLN cells. Draining PLN were dissected from the left hind limb, mechanically dispersed, using tweezers, into ice-cold RPMI 1640 containing 10% fetal bovine serum and antibiotics. The cell suspensions were thoroughly mixed and strained through a 35 μm cell strainer fitted to a 12×75 mm polystyrene tube (BD Biosciences, San Jose, Calif.) and centrifuged at 450×g at 4° C. for 5 min. Cells were suspended in 100 μl staining buffer (PBS containing 0.5% w/v bovine serum albumin, 2 mM EDTA, and 0.05% sodium azide), blocked by addition of 20 μl mg/ml murine IgG (Sigma) and 2 μl anti-CD16/CD32 mAb (Miltenyi Biotec, City/State) at 4° C. for 15 min., and stained with anti-CD3-FITC and anti-B220-PE/Cy5 (eBioscience, 1 μl each) for 15 min. The samples were diluted to 900 μl with staining buffer, mixed thoroughly with 100 μl Flow-Count fluorospheres, and analyzed on an Epics XL flow cytometer (Beckman Coulter, City/State) for determination of absolute lymph node cell counts and percentages and absolute counts of T cells, B cells, and non-T/B cells. Absolute cell counts per lymph node were determined as:\nAnalysis of ^2H incorporation into purine dR. DNA was extracted from samples of bone marrow, total PLN cells, or sorted T and B cells using DNEasy kits (Qiagen, Valencia, Calif.) according to the manufacturer's instructions. Aliquots (0.5 μg) were hydrolyzed to […] by overnight incubation at 37° C. with 0.5 units nuclease SI (Sigma) and 0.25 units potato acid phosphatase (Calbiochem) in 75 mM sodium acetate buffer, pH 4.8, containing 0.15 mM ZnSO4. […] The hydroxyl groups were acetylated using acetic anhydride and N-methylimidazole, and the resultant pentafluorobenzyl […] derivative was extracted into dichloromethane, dried under vacuum, and redissolved in 100 μl ethyl acetate. The derivative was analyzed by gas chromatography/mass spectrometry (GC/MS) as described supra, with selected ion monitoring at m/z 435 (for the parent mass isotopomer, M0) and 436 (M1). After integration of the M0 and M1 peak area using ChemStation software, the excess mole fraction of the M1 mass isotopomer (EM1) was calculated as: […]\nCalculations and statistics. Fractional turnover of PLN cell populations (f, the fraction of total, T, or B cells that have divided during the labeling period, representing clonal expansion, FIG. 1) was calculated as:\nf=EM1observed/EM1maximal,\nwhere EM1maximal was represented, in most experiments, by bone marrow DNA from the same animal, or assumed to equal 0.14. Alternatively, for mice labeled for less than four days, EM1maximal was represented by 0.9× the EMI value predicted from the animal's body water ^2H enrichment (the factor of 0.9 represents dilution by salvage)."}, "[2]": {"assay": "tolerability of maintained 2H2O body water enrichment", "assay_type": "in vivo", "conditions": "1-10% of total body water labeled, weeks or months, humans (>100 people) and experimental animals", "source_text": "Relatively high body water enrichments of ^2H2O (e.g., 1-10% of the total body water is labeled) may be achieved relatively inexpensively using the techniques of the invention. […] This finding in a large number of human subjects (>100 people) is contrary to previous concerns about vestibular toxicities at high doses of ^2H2O. One of the Applicants has discovered that as long as rapid changes in body water enrichment are prevented (e.g., by initial administration in small, divided doses), high body water enrichments of ^2H2O can be maintained with no toxicities. For example, the low expense of commercially available ^2H2O allows long-term maintenance of enrichments in the 1-5% range at relatively low expense."}, "[3]": {"system": "xenografted human tumor cells", "assay": "f of xenografted human tumor cells in mice", "assay_type": "in vivo", "conditions": "10 mg/kg/d, i.p.; previously seen"}, "PLN cells": {"system": "PLN cells", "assay": "kinetic PLNA with 2H2O labeling after KLH immunization in C57BI/6 mice", "assay_type": "in vivo, C57BI/6 (B6) mice", "conditions": "B6 mice"}, "[4]": {"conditions": "day 7, Dex 0.3 mg/kg/d p.o., Tax 10 mg/kg/d i.p., OHU 500 mg/kg/d i.p."}},
  "note": "Entries after “also recorded” stand apart in the source; their conditions may differ.",
  "data": [
    {"compound": "O=[N+]([O-])c1ccc(Cl)c([N+](=O)[O-])c1", "note": "[DNCB, 2,4-dinitrochlorobenzene]", "values": [
      {"measurement": "dose above which f reached a plateau", "setting": "[1]; Balb/c, DNCB in PBS:DMSO, day 7", "value": "above 100 μg"}
    ]},
    {"compound": "[2H]O[2H]", "note": "[^2H2O]", "values": [
      {"measurement": "toxicity of maintained body water enrichment", "setting": "[2]", "value": "without any evidence of toxicity"}
    ]},
    {"compound": "NC(=O)NO", "note": "[hydroxyurea]", "values": [
      {"measurement": "PLN cellularity under drug treatment", "setting": "[1]; [4]", "value": "modest and variable effects"},
      {"measurement": "f of total PLN cells after KLH stimulation", "setting": "[1]; 5 μg KLH, daily drug to day 7: Rap 2 mg/kg/d p.o., OHU 500 mg/kg/d i.p.", "value": "strongly inhibited"},
      {"measurement": "f of total PLN cells at baseline", "setting": "[1]; sham-immunized (PBS), daily drug to day 7: Rap 2 mg/kg/d p.o., OHU 500 mg/kg/d i.p.", "value": "strongly inhibited"}
    ]},
    {"compound": "CC(=O)O[C@H]1C(=O)[C@@]2(C)[C@H]([C@H](OC(=O)c3ccccc3)[C@]3(O)C[C@H](OC(=O)[C@H](O)[C@@H](NC(=O)c4ccccc4)c4ccccc4)C(C)=C1C3(C)C)[C@]1(OC(C)=O)CO[C@@H]1C[C@@H]2O", "note": "[paclitaxel]", "values": [
      {"measurement": "PLN cellularity under drug treatment", "setting": "[1]; [4]", "value": "reduced"},
      {"measurement": "f (clonal expansion) of PLN cells under drug treatment", "setting": "[1]; stimulation not specified, Tax 10 mg/kg/d i.p., Dex 0.3 mg/kg/d p.o., day 7", "value": "did not affect f"},
      {"measurement": "f of xenografted human tumor cells in mice", "setting": "[3]", "value": "strong inhibition"}
    ]},
    {"compound": "keyhole limpet hemocyanin [KLH]", "values": [
      {"measurement": "proliferation response to low doses of KLH", "setting": "[1]; Balb/c, 0.2-2 μg KLH", "value": "increase in f without a change in PLN cellularity"},
      {"measurement": "proliferation response to higher doses of KLH", "setting": "[1]; Balb/c, 5-25 μg KLH or with incomplete Freund's adjuvant", "value": "f reached a plateau"},
      {"measurement": "increase of PLN cellularity", "setting": "[1]; Balb/c, KLH doses that increased cellularity", "value": "2- to 3 fold"},
      {"measurement": "antigen dose at which cellularity was maximal", "setting": "[1]; Balb/c, KLH in PBS, day 7", "value": "around 25 μg"},
      {"measurement": "antigen dose at which f was maximally increased", "setting": "[1]; Balb/c, KLH, as little as", "value": 600, "unit": "ng"},
      {"measurement": "CD4+ T cell f", "setting": "[1]; Balb/c, KLH-immunized, day 7, other attempts, vs. 7.5%±1.3% without KLH, p=0.017", "value": "11.3%±2.1"},
      {"measurement": "proliferating cells as share of cells in the PLN", "setting": "[1]; Balb/c, any KLH dose, day 7", "value": "≤ 20", "unit": "%"},
      {"measurement": "f in total PLN cells after immunization", "setting": "[1]; Balb/c, footpad immunization, day 7", "value": "elevated to a dose-independent plateau; also recorded: significant; also recorded: increased f"},
      {"measurement": "f in PLN B cells after immunization", "setting": "[1]; Balb/c, sorted B cells, day 7", "value": "pronounced increase; also recorded: Significant KLH effect; also recorded: significantly increased"},
      {"measurement": "f in CD4+ T cells after immunization", "setting": "[1]; Balb/c, sorted CD4+ T cells, day 7", "value": "smaller increase"},
      {"measurement": "f in CD8+ T cells after immunization", "setting": "[1]; Balb/c, sorted CD8+ T cells, day 7", "value": "not in CD8^+ T cells"},
      {"measurement": "f in total T cells after immunization", "setting": "[1]; Balb/c, sorted T cells, day 7", "value": "smaller increase; also recorded: Significant KLH effect"},
      {"measurement": "f in sorted B cells and total T cells", "setting": "PLN cells; 200 μg KLH, day 7", "value": "Neither B cells nor T cells showed a substantial increase"},
      {"measurement": "f in PLN cells after KLH immunization, day 7", "setting": "PLN cells; 2-200 μg KLH, day 7", "value": "no significant increase; also recorded: lower"},
      {"measurement": "cellularity in PLN", "setting": "PLN cells; 7 days after KLH immunization", "value": "dose-dependent"},
      {"measurement": "f in PLN cells, time course", "setting": "PLN cells; KLH, day 4", "value": "transient increase"}
    ]}
  ]
}
